Measurements published in US20230416248A1, “COMPOUNDS AND USES THEREOF” (Foghorn Therapeutics Inc., priority 2020, published 2023).
Like-named read-outs stand apart in the source and are kept apart here.

Experiments:
BRM = biological target: T1, BRM (Homo sapiens, UniProt P51531); experiment: ATPase catalytic activity of BRM, ADP-Glo in vitro biochemical assay; conditions: for IC50: 30 nM BRM, 400 μM ATP; for Ratio* (BRG1 IC50 (μM) divided by BRM IC50 (μM)): selectivity ratio BRG1 IC50 / BRM IC50
T1 construct: made in house; host or cells: High Five insect cells
In short: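 ADP-Glo luminescence, after depletion of leftover ATP and conversion of ADP, reported the activity. The 1 h room-temperature reaction held 400 μM ATP, 20 nM salmon sperm DNA and 30 nM BRM in 20 mM Tris pH 8, 20 mM MgCl2, 50 mM NaCl, 0.1% Tween-20, 1 mM DTT.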

BRG-1 = biological target: T2, BRG-1 (Homo sapiens, UniProt P51532); experiment: ATPase catalytic activity of BRG-1, ADP-Glo in vitro biochemical assay; conditions: 30 nM BRG-1, 400 μM ATP, read-out: BRG1 IC50
T2 construct: made in house; host or cells: High Five insect cells
Procedure: The ATPase catalytic activity of BRM or BRG-1 was measured by an in vitro biochemical assay using ADP-Glo™ (Promega, V9102). The ADP-Glo™ kinase assay is performed in two steps once the reaction is complete. The first step is to deplete any unconsumed ATP in the reaction. The second step is to convert the reaction product ADP to ATP, which will be utilized by the luciferase to generate luminesce and be detected by a luminescence reader, such as Envision.
Then, following addition of 5 μL of ADP-Glo™ Reagent provided in the kit, the reaction incubates at room temperature for 40 minutes. Then, 10 μL of Kinase Detection Reagent provided in the kit is added to convert ADP to ATP, and the reaction incubates at room temperature for 60 minutes. Finally, luminescence measurement is collected with a plate-reading luminometer, such as Envision.

[1] = ATPase catalytic activity, ADP-Glo

T2 sequence (P51532 whole entry): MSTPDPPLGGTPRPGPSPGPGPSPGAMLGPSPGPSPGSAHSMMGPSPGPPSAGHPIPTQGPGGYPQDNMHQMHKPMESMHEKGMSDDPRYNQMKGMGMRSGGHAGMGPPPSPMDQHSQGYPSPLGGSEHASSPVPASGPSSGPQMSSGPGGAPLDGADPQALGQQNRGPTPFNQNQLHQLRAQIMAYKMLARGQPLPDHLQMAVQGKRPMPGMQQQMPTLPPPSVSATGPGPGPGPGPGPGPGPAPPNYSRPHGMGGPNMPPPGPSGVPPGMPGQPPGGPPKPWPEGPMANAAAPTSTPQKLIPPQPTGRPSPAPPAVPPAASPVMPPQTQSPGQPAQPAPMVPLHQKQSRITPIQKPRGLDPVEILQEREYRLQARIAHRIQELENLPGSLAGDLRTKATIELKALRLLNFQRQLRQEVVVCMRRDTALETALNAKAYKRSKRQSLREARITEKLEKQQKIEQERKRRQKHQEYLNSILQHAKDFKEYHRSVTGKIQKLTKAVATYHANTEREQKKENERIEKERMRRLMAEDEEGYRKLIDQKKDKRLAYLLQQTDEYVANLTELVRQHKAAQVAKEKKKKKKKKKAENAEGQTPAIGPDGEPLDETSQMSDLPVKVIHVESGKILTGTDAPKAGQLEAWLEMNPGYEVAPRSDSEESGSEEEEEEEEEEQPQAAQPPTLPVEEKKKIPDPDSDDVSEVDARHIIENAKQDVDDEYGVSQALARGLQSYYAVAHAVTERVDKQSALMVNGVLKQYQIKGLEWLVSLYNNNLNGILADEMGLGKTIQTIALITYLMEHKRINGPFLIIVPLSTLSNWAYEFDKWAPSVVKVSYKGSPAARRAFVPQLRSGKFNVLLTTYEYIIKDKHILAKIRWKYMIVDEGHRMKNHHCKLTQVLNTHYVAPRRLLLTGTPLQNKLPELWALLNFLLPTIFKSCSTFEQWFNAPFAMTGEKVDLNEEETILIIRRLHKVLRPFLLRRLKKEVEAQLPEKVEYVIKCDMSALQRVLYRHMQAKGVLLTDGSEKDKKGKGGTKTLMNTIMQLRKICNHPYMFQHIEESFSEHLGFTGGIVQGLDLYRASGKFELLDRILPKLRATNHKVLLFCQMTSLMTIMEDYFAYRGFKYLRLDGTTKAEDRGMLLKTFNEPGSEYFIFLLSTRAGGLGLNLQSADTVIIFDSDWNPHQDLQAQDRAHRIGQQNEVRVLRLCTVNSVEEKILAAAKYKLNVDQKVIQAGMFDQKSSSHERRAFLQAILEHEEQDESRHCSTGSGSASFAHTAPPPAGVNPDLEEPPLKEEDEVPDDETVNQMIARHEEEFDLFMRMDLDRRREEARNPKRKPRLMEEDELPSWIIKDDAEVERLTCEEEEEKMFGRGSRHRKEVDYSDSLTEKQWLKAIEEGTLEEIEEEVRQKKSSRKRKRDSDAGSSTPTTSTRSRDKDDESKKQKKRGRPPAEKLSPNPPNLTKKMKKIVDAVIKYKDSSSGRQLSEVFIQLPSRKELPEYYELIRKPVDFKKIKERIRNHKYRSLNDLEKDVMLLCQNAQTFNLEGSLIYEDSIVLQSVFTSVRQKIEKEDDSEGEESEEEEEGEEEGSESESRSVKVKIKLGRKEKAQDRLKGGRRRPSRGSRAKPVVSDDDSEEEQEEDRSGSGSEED
T1 sequence (P51531 whole entry): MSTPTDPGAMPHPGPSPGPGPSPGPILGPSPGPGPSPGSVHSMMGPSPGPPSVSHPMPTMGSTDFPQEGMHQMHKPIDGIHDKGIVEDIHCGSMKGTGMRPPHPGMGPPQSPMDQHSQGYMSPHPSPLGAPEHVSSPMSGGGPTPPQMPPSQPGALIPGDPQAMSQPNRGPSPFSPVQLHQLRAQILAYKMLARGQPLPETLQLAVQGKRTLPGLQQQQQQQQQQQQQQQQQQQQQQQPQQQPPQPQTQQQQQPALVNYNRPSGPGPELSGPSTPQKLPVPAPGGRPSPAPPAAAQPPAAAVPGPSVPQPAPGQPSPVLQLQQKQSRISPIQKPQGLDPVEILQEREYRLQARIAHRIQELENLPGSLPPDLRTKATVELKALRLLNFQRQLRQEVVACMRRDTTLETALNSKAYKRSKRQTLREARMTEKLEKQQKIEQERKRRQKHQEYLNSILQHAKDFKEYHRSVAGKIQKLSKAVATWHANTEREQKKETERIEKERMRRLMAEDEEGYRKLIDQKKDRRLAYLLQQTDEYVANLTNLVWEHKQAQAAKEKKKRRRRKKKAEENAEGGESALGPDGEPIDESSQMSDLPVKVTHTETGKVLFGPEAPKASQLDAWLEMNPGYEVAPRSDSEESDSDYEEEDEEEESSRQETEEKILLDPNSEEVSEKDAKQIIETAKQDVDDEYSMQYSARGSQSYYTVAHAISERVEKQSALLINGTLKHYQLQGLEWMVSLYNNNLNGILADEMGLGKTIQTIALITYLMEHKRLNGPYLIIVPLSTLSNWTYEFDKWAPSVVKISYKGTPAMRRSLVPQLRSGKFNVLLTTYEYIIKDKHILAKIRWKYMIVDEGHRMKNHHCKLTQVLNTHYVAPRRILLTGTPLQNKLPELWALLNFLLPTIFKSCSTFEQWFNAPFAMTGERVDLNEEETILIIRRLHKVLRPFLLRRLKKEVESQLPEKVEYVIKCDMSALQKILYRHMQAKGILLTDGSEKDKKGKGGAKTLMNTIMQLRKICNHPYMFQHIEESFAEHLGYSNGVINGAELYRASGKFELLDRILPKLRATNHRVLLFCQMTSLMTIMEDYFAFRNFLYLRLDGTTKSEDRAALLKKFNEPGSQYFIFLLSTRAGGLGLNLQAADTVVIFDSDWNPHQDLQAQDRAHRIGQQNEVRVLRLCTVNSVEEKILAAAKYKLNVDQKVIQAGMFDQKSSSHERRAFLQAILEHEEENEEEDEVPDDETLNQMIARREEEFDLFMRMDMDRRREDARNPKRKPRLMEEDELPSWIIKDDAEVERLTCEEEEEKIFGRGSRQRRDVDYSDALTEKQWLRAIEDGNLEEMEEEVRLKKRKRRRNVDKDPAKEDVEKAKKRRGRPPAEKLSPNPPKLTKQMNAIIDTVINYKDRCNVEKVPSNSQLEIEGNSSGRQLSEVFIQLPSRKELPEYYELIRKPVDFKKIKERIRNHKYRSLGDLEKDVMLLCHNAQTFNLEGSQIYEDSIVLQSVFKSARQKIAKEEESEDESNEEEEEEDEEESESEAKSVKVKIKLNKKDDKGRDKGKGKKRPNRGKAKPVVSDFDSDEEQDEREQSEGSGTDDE

| IC50 (BRM; ADP-Glo ATPase assay) | Ratio* (BRG1 IC50 (μM) divided by BRM IC50 (μM)) (BRM) | IC50 (BRG-1; ADP-Glo ATPase assay) | IC50 (BRM; [1]) | Ratio* (BRM; ratio of BRG1 IC50 to BRM IC50) | IC50 (BRG-1; [1]) | Ratio* (BRM; ratio BRG1 IC50 / BRM IC50) | Structure (SMILES) |
| --- | --- | --- | --- | --- | --- | --- | --- |
| 0.0716 µM | 7.12 | 0.51 µM | – | – | – | – | O=C(NCc1cc2nc(-c3cccc4c3OCCN4CC(F)F)ccc2cn1)c1ccc2c(c1)S(=O)(=O)CCOC2 [Compound 131] |
| 0.172 µM | 7.19 | 1.24 µM | – | – | – | – | O=C(NCc1cc2c(cn1)CCN(c1cncc(C3CC3)n1)C2)c1ccc2c(c1)S(=O)(=O)CCOC2 [Compound 290] |
| – | – | – | 0.168 µM | 15.08 | 2.53 µM | – | CCO[C@@H](C)c1ccc2c(n1)N(c1ccc3cnc(CNC(=O)c4ccc5c(c4)S(=O)(=O)CCOC5)cc3n1)CCC2 [Compound 635] |
| 0.0094 µM | – | 0.0842 µM | – | – | – | 8.96 | COc1cccc2c1CCCN2c1ccc2cnc(CNC(=O)c3cnc4c(c3)S(=O)(=O)[C@@H](C)COC4)cc2n1 [Compound 733] |
| – | – | – | 0.0307 µM | 20.63 | 0.632 µM | – | CC1CN(c2cccc(-c3ccc4cnc(CNC(=O)c5ccc6c(c5)S(=O)(=O)C(C)COC6C)cc4n3)n2)CC(C)O1 (centres unmarked) [Compound 540] |
| – | – | – | 0.0066 µM | 10.88 | 0.0724 µM | – | CN(C[C@H]1CCO1)c1cccc(-c2ccc3cnc(CNC(=O)c4ccc5c(c4)S(=O)(=O)CCOC5)cc3n2)n1 [Compound 383] |
| 0.0364 µM | 13.37 | 0.487 µM | – | – | – | – | O=C(NCc1cc2nc(-c3cccc(N4CCC4)c3)ccc2cn1)c1ccc2c(c1)S(=O)(=O)CCOC2 [Compound 255] |
| – | – | – | 0.0235 µM | 54.81 | 1.29 µM | – | O=C(NCc1cc2nc(N3CCCc4ccc([C@H]5CC5(F)F)nc43)ccc2cn1)c1ccc2c(c1)S(=O)(=O)CCOC2 [Compound 690] |
| 0.0103 µM | 9.47 | 0.0972 µM | – | – | – | – | [2H]C([2H])([2H])N(c1cccc(-c2ccc3cnc(CNC(=O)c4ccc5c(c4)S(=O)(=O)CCOC5)cc3n2)n1)C([2H])([2H])[2H] [Compound 291] |
| 0.0255 µM | – | 0.663 µM | – | – | – | 26.04 | O=C(NCc1cc2cc(N3CCOc4ccc(C(F)F)nc43)ccc2cn1)c1ccc2c(c1)S(=O)(=O)CCOC2 [Compound 799] |
| – | – | – | 0.0242 µM | 11.06 | 0.268 µM | – | O=C(NCc1cc2nc(N3CCCc4cc(N5CCC5)cnc43)ccc2cn1)c1ccc2c(c1)S(=O)(=O)CCOC2 [Compound 666] |
| – | – | – | 0.0413 µM | 11.61 | 0.479 µM | – | CC1CN(c2cccc(-c3ccc4cnc(CNC(=O)c5cnc6c(c5)S(=O)(=O)C(C)CC6)cc4n3)n2)CC(C)O1 (centres unmarked) [Compound 597] |
| 0.0084 µM | – | 0.0264 µM | – | – | – | 3.16 | C[C@@H]1CN(c2cccc(-c3ccc4cnc(CNC(=O)c5cnc6c(c5)S(=O)(=O)[C@@H](C)COC6)cc4c3)n2)C[C@H](C)O1 [Compound 769] |
| 0.211 µM | 7.78 | 1.64 µM | – | – | – | – | CCO[C@H]1CCOc2c(-c3ccc4cnc(CNC(=O)c5ccc6c(c5)S(=O)(=O)CCOC6)cc4n3)cccc21 [Compound 66] |
| 0.0903 µM | 16.45 | 1.48 µM | – | – | – | – | O=C(NCc1cc2nc(-c3cccc(CC(F)F)n3)ccc2cn1)c1ccc2c(c1)S(=O)(=O)CCOC2 [Compound 205] |
| 0.0089 µM | – | 0.0884 µM | – | – | – | – | C[C@@H]1CN(c2cccc(-c3ccc4nnc(CNC(=O)c5ccc(C(F)F)c(S(C)(=O)=O)c5)cc4n3)n2)C[C@H](C)O1 [Compound 40] |
| – | – | – | 0.003 µM | 11.70 | 0.0355 µM | – | O=C(NCc1cc2nc(N3CCCc4ccc(OCC5COC5)cc43)ccc2cn1)c1ccc2c(c1)S(=O)(=O)CCOC2 [Compound 676] |
| 0.0158 µM | – | 0.646 µM | – | – | – | 40.93 | O=C(NCc1cc2nc(N3CCOc4c(F)cc(C5CC5)nc43)ccc2cn1)c1ccc2c(c1)S(=O)(=O)CCOC2 [Compound 804] |
| 0.708 µM | – | 2.57 µM | – | – | – | 3.64 | O=C(NCc1cc2nc(-c3ccc(OC4CC4)cn3)ccc2cn1)c1ccc2c(c1)S(=O)(=O)CCOC2 [Compound 851] |
| 0.331 µM | 10.01 | 3.31 µM | – | – | – | – | C[C@@]1(c2cccc(-c3ccc4cnc(CNC(=O)c5ccc6c(c5)S(=O)(=O)CCOC6)cc4n3)n2)CC1(F)F [Compound 214] |
| 0.0131 µM | – | 0.153 µM | – | – | – | 11.63 | O=C(NCc1cc2nc(N3CCOc4c3ncc(C3CC3)c4F)ccc2cn1)c1ccc2c(c1)S(=O)(=O)CCOC2 [Compound 827] |

| IC50 (BRM; ADP-Glo ATPase assay) | Ratio* (BRG1 IC50 (μM) divided by BRM IC50 (μM)) (BRM) | IC50 (BRG-1; ADP-Glo ATPase assay) | IC50 (BRM; [1]) | Ratio* (BRM; ratio of BRG1 IC50 to BRM IC50) | IC50 (BRG-1; [1]) | Ratio* (BRM; ratio BRG1 IC50 / BRM IC50) | Structure (SMILES) |
| --- | --- | --- | --- | --- | --- | --- | --- |
| 0.0068 µM | 11.74 | 0.0794 µM | – | – | – | – | CCN(CCOC)c1cccc(-c2ccc3cnc(CNC(=O)c4ccc5c(c4)S(=O)(=O)CCOC5)cc3n2)n1 [Compound 73] |
| 0.697 µM | 7.17 | 5 µM | – | – | – | – | COC[C@H](C)S(=O)(=O)c1cccc(C(=O)NCc2cc3nc(-c4cncc(C5CC5)n4)ccc3cn2)c1 [Compound 260] |
| – | – | – | 0.0168 µM | 9.37 | 0.158 µM | – | O=C(NCc1cc2nc(N3CCCc4c(OC(F)F)ccnc43)ccc2cn1)c1ccc2c(c1)S(=O)(=O)CCOC2 [Compound 620] |
| 0.0157 µM | 8.19 | 0.129 µM | – | – | – | – | Cc1cc2ccc(-c3ccc4cnc(CNC(=O)c5ccc6c(c5)S(=O)(=O)CCOC6)cc4n3)nc2n1C [Compound 85] |
| 0.0086 µM | – | 0.102 µM | – | – | – | 11.90 | CC1(c2cnc3c(c2)OCCN3c2ccc3cnc(CNC(=O)c4ccc5c(c4)S(=O)(=O)CCOC5)cc3n2)CC1 [Compound 712] |
| 0.166 µM | 12.89 | 2.14 µM | – | – | – | – | O=C(NCc1cc2nc(N3CCCc4cnccc43)ccc2cn1)c1ccc2c(c1)S(=O)(=O)CCOC2 [Compound 90] |
| – | – | – | 0.324 µM | 9.14 | 2.96 µM | – | COCCOc1cc(C(F)F)ccc1-c1ccc2cnc(CNC(=O)c3ccc4c(c3)S(=O)(=O)CCOC4)cc2n1 [Compound 366] |
| 0.0376 µM | – | 0.436 µM | – | – | – | 11.57 | C[C@H]1COCc2ccc(C(=O)NCc3cc4nc(-c5cccc(N6C[C@H]7COC[C@H]7C6)n5)ccc4cn3)cc2S1(=O)=O [Compound 709] |
| 0.0176 µM | 9.92 | 0.174 µM | – | – | – | – | CC1(c2cccc(-c3ccc4cnc(CNC(=O)c5ccc6c(c5)S(=O)(=O)CCOC6)cc4n3)n2)CC1 [Compound 210] |
| – | – | – | 0.0041 µM | 14.47 | 0.0586 µM | – | Cc1cnc2c(c1)CCCN2c1ccc2cnc(CNC(=O)c3cc(F)c4c(c3)S(=O)(=O)CCOC4)cc2n1 [Compound 395] |
| 0.366 µM | 5.25 | 1.92 µM | – | – | – | – | O=C(NCc1cc2nc(N3CCCc4ncccc43)ccc2cn1)c1ccc2c(c1)S(=O)(=O)CCOC2 [Compound 156] |
| 0.858 µM | 10.34 | 8.88 µM | – | – | – | – | CN(C)S(=O)(=O)c1cccc(C(=O)NCc2cc3nc(-c4cncc(C5CC5)n4)ccc3cn2)c1 [Compound 301] |
| – | – | – | 0.0353 µM | 5.73 | 0.202 µM | – | Cc1cc2c(-c3ccc4cnc(CNC(=O)c5ccc6c(c5)S(=O)(=O)CCOC6)cc4n3)cncc2n1C [Compound 657] |
| – | – | – | 0.0483 µM | 3.92 | 0.189 µM | – | CC(F)(F)CN1CCOc2c(-c3ccc4cnc(CNC(=O)c5ccc6c(c5)S(=O)(=O)CCOC6)cc4n3)cccc21 [Compound 479] |
| – | – | – | 0.0251 µM | 14.85 | 0.373 µM | – | O=C(NCc1cc2nc(N3CCCc4ccc(C(F)(F)F)cc43)ccc2cn1)c1ccc2c(c1)S(=O)(=O)CCOC2 [Compound 525] |
| 0.0647 µM | 11.32 | 0.733 µM | – | – | – | – | Cc1ccc(C(=O)NCc2cc3nc(-c4cncc(C5CC5)n4)ccc3cn2)cc1S(C)(=O)=O [Compound 300] |
| 0.0427 µM | 8.84 | 0.377 µM | – | – | – | – | O=C(NCc1cc2nc(-c3cccc(C4(C(F)F)CC4)n3)ccc2cn1)c1ccc2c(c1)S(=O)(=O)CCOC2 [Compound 208] |
| 0.0368 µM | – | 0.298 µM | – | – | – | 8.10 | COc1cnc2c(c1)CCN2c1ccc2cnc(CNC(=O)c3ccc4c(c3)S(=O)(=O)CCOC4)cc2n1 [Compound 703] |
| 0.0145 µM | 21.99 | 0.32 µM | – | – | – | – | C[C@@H]1CN(c2nccc(-c3ccc4cnc(CNC(=O)c5ccc(C(F)F)c(S(C)(=O)=O)c5)cc4n3)n2)C[C@H](C)O1 [Compound 157] |
| – | – | – | 0.0589 µM | 7.89 | 0.465 µM | – | Cc1cnc2c(c1)CCCN2c1ccc2cnc(CNC(=O)c3ccc4c(c3)S(=O)(=O)CCCO4)cc2n1 [Compound 514] |
